Each structure is given as a SMILES string.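 A five-concentration, 48-hour dose response in 96-well plates underlies each endpoint, interpolated linearly between surrounding concentrations. Abbreviation: GI50, concentration required for 50% inhibition of growth. At the TGI there is no net growth.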 Some results are limits rather than exact numbers.

Among the test systems are OVCAR-8 ovarian; A549 NSCLC; ACHN renal; 786-0 renal; K-562 leukemia; PC-3 prostate; HOP-62 NSCLC; SN12C renal; BT-549 breast; SK-MEL-28 melanoma.
Experiment in all cases: NCI-60 cell line screen, 48 h

Regarding `CC(O)(CNS(=O)(=O)c1ccccc1)c1ccccc1` (stereo not drawn), the TGI in the assay on OVCAR-8 ovarian, in the assay on A549 NSCLC, in the assay on ACHN renal, with 786-0 renal, with K-562 leukemia and in the assay with PC-3 prostate was above 100 µM in each case. Further, the TGI in the assay on HOP-62 NSCLC, in the assay with SN12C renal, in the assay with BT-549 breast and in the assay with SK-MEL-28 melanoma was above 100 µM each time.
On to `CN1CCN(CCNc2ccc(CO)c3sc4ccccc4c(=O)c23)CC1`, for which the TGI in the assay with OVCAR-8 ovarian is 23.5 µM; in the assay with A549 NSCLC, 11.3 µM; in the assay with ACHN renal, 26.7 µM; with 786-0 renal, 17.5 µM; in the assay on K-562 leukemia, 14.7 µM; with PC-3 prostate, 14.5 µM. In addition, the TGI was determined as 18.6 µM in the assay with HOP-62 NSCLC, 15.4 µM with SN12C renal, 16.1 µM in the assay with BT-549 breast and 9.02 µM with SK-MEL-28 melanoma. The GI50 in the assay with PC-3 prostate is 3.5 µM; with SN12C renal it was 3.64 µM; with BT-549 breast it was 4.83 µM.
For `CCN(CC)CCOc1ccc2c(c1)C(=O)c1cc(OCCN(CC)CC)ccc1-2`, the GI50 with OVCAR-8 ovarian is 8000 nM; in the assay on A549 NSCLC, 6400 nM; in the assay with ACHN renal, 5920 nM; in the assay on 786-0 renal, 7170 nM; in the assay with K-562 leukemia it was 3100 nM; in the assay with PC-3 prostate, 5.64 µM. For the same compound, the GI50 is 8120 nM with HOP-62 NSCLC, 12.6 µM with SN12C renal, 20.4 µM in the assay with BT-549 breast and 15100 nM with SK-MEL-28 melanoma. Besides, the TGI in the assay on OVCAR-8 ovarian stood at 54 µM; with A549 NSCLC, 32.9 µM; with ACHN renal, 46.5 µM; with 786-0 renal it was 21.8 µM; in the assay with K-562 leukemia, 11.2 µM; with PC-3 prostate, 26.2 µM. Moreover, the TGI in the assay on HOP-62 NSCLC turned out to be 28 µM; in the assay with SN12C renal, 45.1 µM; in the assay with BT-549 breast, 46.5 µM; in the assay with SK-MEL-28 melanoma, 29.4 µM.
As for `CS(=O)(=O)CCn1c(=O)c(Oc2ccc(F)cc2F)cc2cnc(NC3CCOCC3)nc21`, the GI50 with OVCAR-8 ovarian was above 25000 nM; in the assay with A549 NSCLC, above 25000 nM; with ACHN renal, above 25000 nM; in the assay with 786-0 renal it was above 25000 nM; in the assay with K-562 leukemia, above 25000 nM; in the assay with PC-3 prostate, above 25 µM. The GI50 was above 25000 nM with HOP-62 NSCLC, above 25 µM with SN12C renal, above 25 µM in the assay with BT-549 breast and above 25000 nM in the assay on SK-MEL-28 melanoma. For the same compound, the TGI with OVCAR-8 ovarian, with A549 NSCLC, in the assay with ACHN renal, with 786-0 renal, with K-562 leukemia and with PC-3 prostate was above 25 µM in each case. Further, the TGI in the assay with HOP-62 NSCLC, in the assay with SN12C renal, with BT-549 breast and in the assay on SK-MEL-28 melanoma was above 25 µM throughout.
For the compound `COC1C(O)C(C)OC(OC2CC3CCC4C(CCC5(C)C(C6=CC(=O)OC6)CCC45O)C3(O)C(OC(C)=O)C2)C1O` (stereo not drawn), the TGI in the assay with OVCAR-8 ovarian was 5.35 µM; with A549 NSCLC, 1.41 µM; in the assay with ACHN renal it was 2.13 µM; in the assay on 786-0 renal it was above 100 µM; in the assay with K-562 leukemia it was above 100 µM; in the assay on PC-3 prostate it was 8.77 µM. Further, the TGI with HOP-62 NSCLC was 2.59 µM; with SN12C renal it was 2.6 µM; with BT-549 breast it was 2.02 µM; in the assay with SK-MEL-28 melanoma, above 37.6 µM.
As for `NC(Cc1ccnnc1)C(=O)O` (stereo not drawn), the TGI in the assay on OVCAR-8 ovarian, with A549 NSCLC, in the assay with ACHN renal, with 786-0 renal, with K-562 leukemia and with PC-3 prostate was above 100 µM throughout. Moreover, the TGI in the assay on HOP-62 NSCLC, with SN12C renal, in the assay with BT-549 breast and in the assay with SK-MEL-28 melanoma was above 100 µM each time.
Consider `O=S(=O)(O)/C(=C\c1ccccc1)c1ccccc1` (tested in a mixture with another compound), for which the TGI in the assay on OVCAR-8 ovarian, with A549 NSCLC, with ACHN renal, in the assay with 786-0 renal, in the assay with K-562 leukemia and in the assay on PC-3 prostate was above 100 µM in each case. The TGI in the assay on HOP-62 NSCLC, with SN12C renal, in the assay with BT-549 breast and in the assay on SK-MEL-28 melanoma was above 100 µM throughout.
For `CNC(=O)OC1C(O[C@H]2C[C@H]3[C@@H]4CC=C5C[C@@H](O)CC[C@]5(C)[C@H]4CC[C@]3(C)[C@H]2[C@H](C)C(=O)CCC(C)C)OCC(O)C1OC1OCC(O)C(O)C1OC(=O)c1ccc(OC)cc1` (stereo partly drawn), the GI50 in the assay on OVCAR-8 ovarian is 2820 nM; with A549 NSCLC, 17.8 nM; with ACHN renal, 263 nM; in the assay on 786-0 renal, 3.41 nM; in the assay on K-562 leukemia, 13.9 nM; in the assay with PC-3 prostate it was 0.01 µM. In addition, the GI50 with HOP-62 NSCLC was 22.5 nM; in the assay on SN12C renal it was 2.64 µM; in the assay with BT-549 breast, below 0.00275 µM; in the assay on SK-MEL-28 melanoma, 12.3 nM. Besides, the TGI in the assay on OVCAR-8 ovarian was found to be 11.2 µM; in the assay with A549 NSCLC, 4.96 µM; in the assay on ACHN renal, 5.13 µM; in the assay with 786-0 renal it was 0.652 µM; with K-562 leukemia, 0.554 µM; in the assay on PC-3 prostate, 0.447 µM. Further, the TGI in the assay with HOP-62 NSCLC turned out to be 2.85 µM; with SN12C renal, 6.83 µM; with BT-549 breast, 3.49 µM; in the assay on SK-MEL-28 melanoma it was 0.0754 µM.
Take `C/C1=C/C(=O)O[C@@H]2C[C@@H](CC[C@H](C)/C=C\C=C\CC1)O[C@@](OCCc1ccccc1)([C@@H]1CSC(=O)N1)C2`: the GI50 was 1110 nM in the assay on OVCAR-8 ovarian; 75.4 nM with A549 NSCLC; 50.1 nM with ACHN renal; 107 nM with 786-0 renal; 954 nM with K-562 leukemia; 0.0754 µM with PC-3 prostate. For the same compound, the GI50 with HOP-62 NSCLC is 77.7 nM; in the assay on SN12C renal, 0.0787 µM; with BT-549 breast it was 0.0404 µM; in the assay on SK-MEL-28 melanoma it was 218 nM. The TGI in the assay with OVCAR-8 ovarian, in the assay with A549 NSCLC, with ACHN renal, in the assay on 786-0 renal, in the assay with K-562 leukemia and in the assay on PC-3 prostate was above 17.5 µM in each case. Besides, the TGI in the assay with HOP-62 NSCLC was above 17.5 µM; in the assay with SN12C renal it was above 17.5 µM; with BT-549 breast, 0.113 µM; in the assay with SK-MEL-28 melanoma, 0.995 µM.

The values above are taken from PubChem BioAssay (NCI).
